Measurements reported in patent US10221162B2, “Triazole agonists of the APJ receptor” (priority 2015, dated 2019).
Read-outs that look alike come from different tables or passages of the source.

Experiments:
[1] = tested on: naive Sprague Dawley rat hearts; assay: Langendorff isolated perfused rat heart (ex vivo contractility and relaxation); conditions: Langendorff apparatus, as a function of concentration
heart failure rat model = assay: In vivo cardiac contractility in heart failure (MI) rat model; conditions: heart failure rats; for cardiac contractility as measured by dP/dt / MI Rat Model dP/dtmax (%): acute administration for 30 min; for cardiac contractility as measured by dP/dt: result in words
Procedure: Male Lewis rats (Charles River, USA) at 2-3 months of age were used for the study. […] APJ agonists were administered dose dependently acutely for a period of 30 min.
The interaction between […] (ACE2) and Apelin biology is complicated. To investigate the interaction between the Apelin-APJ and ACE signalling pathways, we examined the improvement in cardiac function with APJ small molecule agonists in the presence of ACE inhibitor captopril in heart failure rats in vivo.

[2] = tested on: isolated perfused rat hearts; assay: Ex vivo isolated perfused rat heart (Langendorff) assay; conditions: percent change; for Isolated Heart Assay dP/dtmax (%): LV contractility; for Isolated Heart Assay dP/dtmin (%): LV relaxation
human APJ receptor = human APJ receptor (Homo sapiens (Human), UniProt P35414); assay: [35S]GTPγS binding assay (hAPJ SPA); assay type: biochemical
Chain of human APJ receptor (P35414 whole entry): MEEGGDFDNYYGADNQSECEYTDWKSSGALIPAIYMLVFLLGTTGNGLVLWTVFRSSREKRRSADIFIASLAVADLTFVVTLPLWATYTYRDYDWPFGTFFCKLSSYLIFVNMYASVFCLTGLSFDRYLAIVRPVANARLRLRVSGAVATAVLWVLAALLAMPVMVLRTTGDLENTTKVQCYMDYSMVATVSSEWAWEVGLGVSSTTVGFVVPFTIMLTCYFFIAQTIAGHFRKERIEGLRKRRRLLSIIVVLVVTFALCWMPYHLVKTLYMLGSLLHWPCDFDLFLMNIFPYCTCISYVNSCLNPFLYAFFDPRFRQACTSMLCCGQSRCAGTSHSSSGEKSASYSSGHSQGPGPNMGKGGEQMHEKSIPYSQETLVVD
Procedure: The human APJ receptor was cloned by polymerase chain reaction and the gene encoding the receptor was subcloned in pFLAG-CMV™-3 expression vector (Sigma, Saint Louis, Mo. USA) in-house at Amgen. A GTPγS binding assay was performed on membranes prepared from CHO cells stably expressing human APJ receptor. The optimum experimental conditions for the concentrations of GDP, MgCl2, and NaCl in the assay buffer were initially determined. The assay was performed in assay buffer [20 mM HEPES, pH 7.5, 5 mM MgCl2, and 0.1% (w/v) BSA with 200 mM NaCl, 3 μM GDP] and membranes expressing human APJ receptor/well along with WGA PS beads. The reaction was initiated by addition of 0.2 nM [^35S]GTPγS (Perkin Elmer Life and Analytical Sciences, Waltham USA) in the absence or presence of various ligands and incubated at RT for 90 min. […] All the results presented are means of several independent experiments and analyzed by non-linear regression methods using commercially available program Prism (GraphPad, San Diego, Calif.) to obtain EC50 detailed in Table 58.

[3] = membranes from CHO cells stably expressing human APJ receptor, [35S]GTPγS, read-out: Activity hAPJ SPA EC50 IP

## COc1cccc(OC)c1-n1c(NS(=O)(=O)[C@@H](C)[C@H](C)c2ncc(C)cn2)nnc1-c1cncc(C)c1 [Example 263.0, (2S,3R)—N-(4-(2,6-dimethoxyphenyl)-5-(5-methylpyridin-3-yl)-4H-1,2,4-triazol-3-yl)-3-(5-methylpyrimidin-2-yl)butane-2-sulfonamide]
[1]
  left ventricular dP/dtmax (load independent cardiac contractility): increases load independent cardiac contractility
  left ventricular dP/dtmin (load independent cardiac relaxation): increases load independent cardiac relaxation
Heart failure rat model
  cardiac contractility as measured by dP/dt: increase in cardiac contractility

## COc1cccc(OC)c1-n1c(NS(=O)(=O)[C@H](C)[C@@H](OC)c2ncc(Cl)cn2)nnc1-c1cncc(C)c1 (single isomer, unassigned) [Example 557.0]
Heart failure rat model
  MI Rat Model dP/dtmax (%): No effect
[2]
  Isolated Heart Assay dP/dtmax (%): 17.0%
  Isolated Heart Assay dP/dtmin (%): 20.0%

## COc1cccc(-c2nnc(NS(=O)(=O)[C@@H](C)[C@H](OC)c3ncc(C)cn3)n2-c2c(OC)cccc2OC)n1 [Example 27.0, (1R,2S)—N-(4-(2,6-dimethoxyphenyl)-5-(6-methoxypyridin-2-yl)-4H-1,2,4-triazol-3-yl)-1-methoxy-1-(5-methylpyrimidin-2-yl)propane-2-sulfonamide]
Heart failure rat model
  cardiac contractility as measured by dP/dt: increase in cardiac contractility

## COc1cnc([C@H](O)[C@@H](C)S(=O)(=O)Nc2nnc(-c3cccnc3)n2-c2c(OC)cccc2OC)cn1 (single isomer, unassigned) [Example 706.0, (1S,2R)-N-(4-(2,6-dimethoxyphenyl)-5-(3-pyridinyl)-4H-1,2,4-triazol-3-yl)-1-hydroxy-1-(5-methoxy-2-pyrazinyl)-2-propanesulfonamide or (1R,2S)-N-(4-(2,6-dimethoxyphenyl)-5-(3-pyridinyl)-4H-1,2,4-triazol-3-yl)-1-hydroxy-1-(5-methoxy-2-pyrazinyl)-2-propanesulfonamide]
[2]
  Isolated Heart Assay dP/dtmax (%): 9.1%
  Isolated Heart Assay dP/dtmin (%): 4.0%

## COc1cccc(-c2nnc(NS(=O)(=O)[C@@H](C)[C@H](O)c3ccccc3OC)n2-c2c(OC)cccc2OC)n1 (single isomer, unassigned) [Example 324.0]
Human APJ receptor; [3]
  EC50: 14 nM

## COc1cccc(OC)c1-n1c(NS(=O)(=O)[C@@H](C)[C@H](OC)c2ncc(F)cn2)nnc1-c1cccnc1 (single isomer, unassigned) [Example 244.0]
[2]
  Isolated Heart Assay dP/dtmax (%): 14.0%
  Isolated Heart Assay dP/dtmin (%): 15.0%

## COc1cccc(OC)c1-n1c(NS(=O)(=O)[C@@H](C)[C@H](OC)c2ncc(F)cn2)nnc1-c1cncc(C)c1 (single isomer, unassigned) [Example 242.0]
[2]
  Isolated Heart Assay dP/dtmax (%): 5.0%
  Isolated Heart Assay dP/dtmin (%): −2.7%

## COc1cccc(OC)c1-n1c(NS(=O)(=O)[C@@H](C)[C@H](O)c2ccc(C#N)cc2)nnc1-c1cncc(C)c1.COc1cccc(OC)c1-n1c(NS(=O)(=O)[C@H](C)[C@@H](O)c2ccc(C#N)cc2)nnc1-c1cncc(C)c1 (mixture of isomers) [Example 247.0, (1R,2S)-1-(4-cyanophenyl)-N-(4-(2,6-dimethoxyphenyl)-5-(5-methyl-3-pyridinyl)-4H-1,2,4-triazol-3-yl)-1-hydroxy-2-propanesulfonamide and (1S,2R)-1-(4-cyanophenyl)-N-(4-(2,6-dimethoxyphenyl)-5-(5-methyl-3-pyridinyl)-4H-1,2,4-triazol-3-yl)-1-hydroxy-2-propanesulfonamide]
Human APJ receptor
  EC50: 3.8 nM

## COc1cccc(-c2nnc(NS(=O)(=O)[C@@H](C)[C@H](O)c3ccccc3OC)n2-c2c(OC)cccc2OC)n1 (single isomer, unassigned) [Example 327.0]
Human APJ receptor; [3]
  EC50: 2 nM

## COc1cccc(OC)c1-n1c(NS(=O)(=O)[C@@H](C)[C@H](C)c2ncc(C)cn2)nnc1-c1cccnc1 [Example 586.0, (2S,3R)—N-(4-(2,6-dimethoxyphenyl)-5-(3-pyridinyl)-4H-1,2,4-triazol-3-yl)-3-(5-methyl-2-pyrimidinyl)-2-butanesulfonamide]
Heart failure rat model
  cardiac contractility as measured by dP/dt: increase in cardiac contractility

## COc1cccc(-c2nnc(NS(=O)(=O)[C@@H](C)[C@H](O)c3ccccc3OC)n2-c2c(OC)cccc2OC)n1 (single isomer, unassigned) [Example 325.0]
Human APJ receptor; [3]
  EC50: 170 nM

## COc1ncnc(OC)c1-n1c(NS(=O)(=O)[C@@H](C)[C@H](OC)c2ccc(Cl)cn2)nnc1-c1cccnc1 (single isomer, unassigned) [Example 711.0, (1R,2S)-1-(5-chloro-2-pyridinyl)-N-(4-(4,6-dimethoxy-5-pyrimidinyl)-5-(3-pyridinyl)-4H-1,2,4-triazol-3-yl)-1-methoxy-2-propanesulfonamide or (1S,2R)-1-(5-chloro-2-pyridinyl)-N-(4-(4,6-dimethoxy-5-pyrimidinyl)-5-(3-pyridinyl)-4H-1,2,4-triazol-3-yl)-1-methoxy-2-propanesulfonamide]
[2]
  Isolated Heart Assay dP/dtmax (%): 9.4%
  Isolated Heart Assay dP/dtmin (%): 1.1%

## C[C@H](CS)C(=O)N1CCC[C@H]1C(=O)O [Captopril]
Heart failure rat model; captopril alone, acute settings
  improvement in contractility or ejection fraction: does not show a marked improvement in contractility or ejection fraction

## COc1cccc(OC)c1-n1c(NS(=O)(=O)[C@@H](C)[C@H](O)c2ncc(C)cn2)nnc1-c1cncc(C)c1 [Example 371.0, (1R,2S)—N-(4-(2,6-dimethoxyphenyl)-5-(5-methylpyridin-3-yl)-4H-1,2,4-triazol-3-yl)-1-hydroxy-1-(5-methylpyrimidin-2-yl)propane-2-sulfonamide]
Heart failure rat model
  cardiac contractility as measured by dP/dt: increase in cardiac contractility

## COc1cccc(OC)c1-n1c(NS(=O)(=O)[C@H](C)[C@@H](C)c2ncc(Cl)cn2)nnc1-c1cccnc1 (racemic) [Example 694.0, (2R,3S)-3-(5-chloropyrimidin-2-yl)-N-(4-(2,6-dimethoxyphenyl)-5-(pyridin-3-yl)-4H-1,2,4-triazol-3-yl)butane-2-sulfonamide or (2S,3R)-3-(5-chloropyrimidin-2-yl)-N-(4-(2,6-dimethoxyphenyl)-5-(pyridin-3-yl)-4H-1,2,4-triazol-3-yl)butane-2-sulfonamide]
Heart failure rat model
  MI Rat Model dP/dtmax (%): 8%
[2]
  Isolated Heart Assay dP/dtmax (%): 18.0%
  Isolated Heart Assay dP/dtmin (%): 32.0%

## CCOc1cccc(OC)c1-n1c(NS(=O)(=O)[C@@H](C)[C@H](OC)c2ncc(C)cn2)nnc1-c1cccc(OC)n1 (single isomer, unassigned) [Example 665.0, (1R,2S,P)—N-(4-(2-ethoxy-6-methoxyphenyl)-5-(6-methoxy-2-pyridinyl)-4H-1,2,4-triazol-3-yl)-1-methoxy-1-(5-methyl-2-pyrimidinyl)-2-propanesulfonamide or (1R,2S,M)-N-(4-(2-ethoxy-6-methoxyphenyl)-5-(6-methoxy-2-pyridinyl)-4H-1,2,4-triazol-3-yl)-1-methoxy-1-(5-methyl-2-pyrimidinyl)-2-propanesulfonamide]
Human APJ receptor; [3]
  EC50: 3.9 nM

## COc1cccc(OC)c1-n1c(NS(=O)(=O)[C@H](C)[C@@H](OC)c2ccc(Cl)cn2)nnc1-c1cccnc1 (single isomer, unassigned) [Example 531.0, (1S,2R)-1-(5-chloro-2-pyridinyl)-N-(4-(2,6-dimethoxyphenyl)-5-(3-pyridinyl)-4H-1,2,4-triazol-3-yl)-1-methoxy-2-propanesulfonamide or (1R,2S)-1-(5-chloro-2-pyridinyl)-N-(4-(2,6-dimethoxyphenyl)-5-(3-pyridinyl)-4H-1,2,4-triazol-3-yl)-1-methoxy-2-propanesulfonamide]
[2]
  Isolated Heart Assay dP/dtmax (%): 4.1%
  Isolated Heart Assay dP/dtmin (%): 1.9%

## COc1cccc(-c2nnc(NS(=O)(=O)[C@@H](C)[C@H](O)c3ccccc3OC)n2-c2c(OC)cccc2OC)n1 (single isomer, unassigned) [Example 326.0]
Human APJ receptor; [3]
  EC50: 22 nM

## CCO[C@H](c1ncc(C)cn1)[C@H](C)S(=O)(=O)Nc1nnc(-c2cccnc2)n1-c1c(OC)cccc1OC [Example 109.0, (1R,2S)-N-(4-(2,6-dimethoxyphenyl)-5-(pyridin-3-yl)-4H-1,2,4-triazol-3-yl)-1-ethoxy-1-(5-methylpyrimidin-2-yl)propane-2-sulfonamide]
Heart failure rat model
  cardiac contractility as measured by dP/dt: increase in cardiac contractility

## COc1cccc(OC)c1-n1c(NS(=O)(=O)[C@@H](C)[C@H](C)c2ncc(F)cn2)nnc1-c1cccnc1 (single isomer, unassigned) [Example 184.0, (2R,3S)-N-(4-(2,6-dimethoxyphenyl)-5-(3-pyridinyl)-4H-1,2,4-triazol-3-yl)-3-(5-fluoro-2-pyrimidinyl)-2-butanesulfonamide or (2S,3R)-N-(4-(2,6-dimethoxyphenyl)-5-(3-pyridinyl)-4H-1,2,4-triazol-3-yl)-3-(5-fluoro-2-pyrimidinyl)-2-butanesulfonamide]
[2]
  Isolated Heart Assay dP/dtmax (%): 14.5%
  Isolated Heart Assay dP/dtmin (%): 14.0%
